Test results reported in US8481576B2 (Abbott GmbH & Co. KG, priority 2004, dated 2013).
Where a name gives a salt, the structure may show the parent alone.

Molecular target: T1, h5-HT5A receptor (Homo sapiens, UniProt P47898)
T1 construct: expressed in transfected cells; host or cells: HEK293
Assay: [3H]5-CT binding assay h5-HT5A
Conditions: membranes from HEK293 cells expressing h5-HT5A, 2.5 nM [3H]5-CT; read-out: Binding affinity 5-HT5A (Ki)
How it was run: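 Membranes from HEK293 cells stably expressing h5-HT5A incubated with 2.5 nM [3H]5-CT and compound in 100 mM Tris-HCl pH 7.7, 1 mM EDTA, 75 min at 30° C. Nonspecific binding with 10 μM methiothepine; filtration and scintillation counting give Ki or IC50.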

T1 sequence (P47898 whole entry): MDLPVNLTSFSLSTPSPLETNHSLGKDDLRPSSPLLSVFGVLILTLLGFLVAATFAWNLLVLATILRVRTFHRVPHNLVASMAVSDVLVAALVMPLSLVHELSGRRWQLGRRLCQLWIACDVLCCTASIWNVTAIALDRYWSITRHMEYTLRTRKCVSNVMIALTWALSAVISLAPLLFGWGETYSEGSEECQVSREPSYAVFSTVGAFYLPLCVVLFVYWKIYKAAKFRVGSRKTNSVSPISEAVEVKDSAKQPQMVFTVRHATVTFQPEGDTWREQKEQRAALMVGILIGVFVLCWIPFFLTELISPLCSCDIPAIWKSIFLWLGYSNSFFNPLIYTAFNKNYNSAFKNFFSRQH

`COc1cccc(OC)c1CNC(=N)Nc1nc(-c2ccncc2)cs1` [Example 45, N-(2,6-dimethoxybenzyl)-N′-(4-pyridine-4-yl-1,3-thiazole-2-yl)guanidine] and `COc1ccccc1CNC(=N)Nc1cc(-c2ccc(C)cc2)[nH]n1` [Example 206, N-(2-methoxybenzyl)-N′-[5-(4-methylphenyl)-1H-pyrazole-3-yl]guanidine] cannot be ordered by Ki: < 50 nM for the first, < 50 nM for the second.

Compared with `CC(=O)Nc1cccc(OCCCNC(=N)Nc2nccs2)c1` [Example 22, N-[3-(3-{[imino(1,3-thiazole-2-ylamino)methyl]amino}propoxy)phenyl]acetamide], `COc1ccccc1CNC(=N)Nc1ccn(C)n1` [Example 214, N-(2-methoxybenzyl)-N′-(1-methyl-1H-pyrazole-3-yl)guanidine] is lower in Ki: > 500 nM for the first, < 50 nM for the second.

First: COC(=O)c1sc(NC(=N)NCc2c(OC)cccc2OC)nc1-c1ccc(F)cc1 [Example 160, Methyl-2-{[[(2,6-dimethoxybenzyl)amino](imino)methyl]amino}-4-(4-fluorophenyl)-1,3-thiazole-5-carboxylate]
Second: COc1ccccc1CNC(=N)Nc1nc2ccccc2n1C [Example 92, N-(2-methoxybenzyl)-N′-(1-methyl-1H-benzimidazole-2-yl)guanidine]
The Ki of the first is lower: < 50 nM for the first, 50 to 500 nM for the second. The first binds more tightly here.

First: COc1cccc(OC)c1CNC(=N)Nc1nc(-c2ncc(Cl)cc2Cl)cs1 [Example 126, N-[4-(3,5-dichloropyridine-2-yl)-1,3-thiazole-2-yl]-N′-(2,6-dimethoxybenzyl)guanidine]
Second: COc1cccc(OC)c1CNC(=N)Nc1nc(C2CCCN2C(C)C)cs1 (centres unmarked) [Example 156, N-(2,6-dimethoxybenzyl)-N′-[4-(1-isopropylpyrrolidine-2-yl)-1,3-thiazole-2-yl]guanidine]
The Ki of the first is lower: < 50 nM for the first, 50 to 500 nM for the second.

`COc1cccc(OC)c1CNC(=N)Nc1nc2c(s1)Cc1ccccc1-2` [Example 80, N-(2,6-dimethoxybenzyl)-N′-8H-indeno[1,2-d][1,3]thiazole-2-ylguanidine hydrobromide] and `COc1cccc(OC)c1CNC(=N)Nc1nc(-c2cc(F)cc(F)c2)cs1` [Example 68, N-[4-(3,5-difluorophenyl)-1,3-thiazole-2-yl]-N′-(2,6-dimethoxybenzyl)guanidine hydrobromide] cannot be ordered by Ki: < 50 nM for the first, < 50 nM for the second.

`COc1cccc(Cl)c1CNC(=N)Nc1nc(-c2ccc(F)cc2)c[nH]1` [Example 195, N-(2-chlor-6-methoxybenzyl)-N′-[4-(4-fluorphenyl)-1H-imidazole-2-yl]guanidine acetate] and `COC(=O)NCc1csc(NC(=N)NCc2c(OC)cccc2OC)n1` [Example 159, Methyl[(2-{[[(2,6-dimethoxybenzyl)amino](imino)methyl]amino}-1,3-thiazole-4-yl)methyl]carbamate] cannot be ordered by Ki: < 50 nM for the first, < 50 nM for the second.

Compared with `N=C(NCCOc1ccccc1Cl)Nc1nccs1` [Example 29, N-[2-(2-chlorophenoxy)ethyl]-N′-1,3-thiazole-2-ylguanidine (2E)-But-2-endioate], `COc1ccccc1CN=C(N)Nc1nc(-c2ccccc2)ns1` [Example 106, N″-(2-methoxybenzyl)-N-(3-phenyl-1,2,4-thiadiazole-5-yl)guanidine (2E)-But-2-endioate] is higher in Ki: 50 to 500 nM for the first, > 500 nM for the second.

First: COc1ccccc1CNC(=N)Nc1nc(-c2ccccc2C(F)(F)F)cs1 [Example 103, N-(2-methoxybenzyl)-N′-{4-[2-(trifluoromethyl)phenyl]-1,3-thiazole-2-yl}guanidine]
Second: COc1cccc(OC)c1CNC(=N)Nc1nc(C2CCCN2)cs1 (centres unmarked) [Example 147, N-(2,6-dimethoxybenzyl)-N′-(4-pyrrolidine-2-yl-1,3-thiazole-2-yl)guanidine hydrochloride]
The Ki of the first is higher: 50 to 500 nM for the first, < 50 nM for the second. The second binds more tightly here.

`COc1cccc(OC)c1CNC(=N)Nc1nc(-c2ccc(C(C)C)cc2)cs1` [Example 95, N-(2,6-dimethoxybenzyl)-N′-[4-(4-isopropylphenyl)-1,3-thiazole-2-yl]guanidine] and `COc1ccccc1CNC(=N)Nc1nc(-c2cccc(F)c2)cs1` [Example 99, N-[4-(3-fluorophenyl)-1,3-thiazole-2-yl]-N′-(2-methoxybenzyl)guanidine] fall in the same range of Ki: 50 to 500 nM for the first, 50 to 500 nM for the second.

`COc1ccccc1-c1csc(NC(=N)NCc2c(OC)cccc2OC)n1` [Example 75, N-(2,6-dimethoxybenzyl)-N′-[4-(2-methoxyphenyl)-1,3-thiazole-2-yl]guanidine hydrobromide] and `COc1cccc(OC)c1CNC(=N)Nc1nc(-c2ccsc2)cs1` [Example 72, N-(2,6-dimethoxybenzyl)-N′-[4-(3-thienyl)-1,3-thiazole-2-yl]guanidine acetate] cannot be ordered by Ki: < 50 nM for the first, < 50 nM for the second.

`COc1cccc(OC)c1CNC(=N)Nc1nc(-c2ccccc2Cl)cs1` [Example 44, N-[4-(2-chlorophenyl)-1,3-thiazole-2-yl]-N′-(2,6-dimethoxybenzyl)guanidine] and `COc1cc(F)ccc1-c1csc(NC(=N)NCc2c(OC)cccc2OC)n1` [Example 111, N-(2,6-dimethoxybenzyl)-N′-[4-(4-fluoro-2-methoxyphenyl)-1,3-thiazole-2-yl]guanidine] cannot be ordered by Ki: < 50 nM for the first, < 50 nM for the second.

`COc1ccccc1CNC(=N)Nc1nc2ccccc2[nH]1` [Example 93, N-1H-benzimidazole-2-yl-N′-(2-methoxybenzyl)guanidine acetate] and `COc1ccccc1CNC(=N)Nc1nc(-c2ccc(F)cc2)c[nH]1` [Example 186, N-[4-(4-fluorophenyl)-1H-imidazole-2-yl]-N′-(2-methoxybenzyl)guanidine] cannot be ordered by Ki: < 50 nM for the first, < 50 nM for the second.

First: Cc1ccc(C)c(CNC(=N)Nc2nccs2)c1 [Example 4, N-(2,5-dinnethylbenzyl)-N′-1,3-thiazole-2-ylguanidine hydrochloride]
Second: COc1cccc(OC)c1CNC(=N)Nc1nc(C2CCCCC2)cs1 [Example 97, N-(4-cyclohexyl-1,3-thiazole-2-yl)-N′-(2,6-dimethoxybenzyl)guanidine]
The Ki of the first is higher: 50 to 500 nM for the first, < 50 nM for the second. The second binds more tightly here.

Compared with `COc1cccc(OC)c1CNC(=N)Nc1nc2ccc(C)cc2s1` [Example 169, N-(2,6-dimethoxybenzyl)-N′-(6-methyl-1,3-benzothiazole-2-yl)guanidine fumarate], `COc1cccc(OC)c1CNC(=N)Nc1nc(-c2ccc(S(C)(=O)=O)cc2)cs1` [Example 82, N-(2,6-dimethoxybenzyl)-N′-{4-[4-(methylsulfonyl)phenyl]-1,3-thiazole-2-yl}guanidine hydrobromide] is higher in Ki: < 50 nM for the first, 50 to 500 nM for the second.

First: COc1cccc(OC)c1CNC(=N)Nc1nc(-c2ccc(F)cc2O)cs1 [Example 142, N-(2,6-dimethoxybenzyl)-N′-[4-(4-fluoro-2-hydroxyphenyl)-1,3-thiazole-2-yl]guanidine]
Second: COc1ccccc1CNC(=N)Nc1nc(C(F)(F)F)cs1 [Example 52, N-(2-methoxybenzyl)-N′-[4-(trifluoromethyl)-1,3-thiazole-2-yl]guanidine (2E)-But-2-endioate]
The Ki of the first is lower: < 50 nM for the first, > 500 nM for the second.

`COc1cccc(OC)c1CNC(=N)Nc1nc(CN)cs1` [Example 154, N-[4-(aminomethyl)-1,3-thiazole-2-yl]-N′-(2,6-dimethoxybenzyl)guanidine hydrochloride] and “2-(2-{[[(2,6-dimethoxybenzyl)amino](imino)methyl]amino}-1,3-thiazole-4-yl)-N-(2-methoxybenzyl)acetamide (2E)-But-2-endioate [Example 51]” cannot be ordered by Ki: < 50 nM for the first, < 50 nM for the second.

`COc1cccc(OC)c1CNC(=N)Nc1nc(-c2c(OC)cccc2OC)cs1` [Example 113, N-(2,6-dimethoxybenzyl)-N′-[4-(2,6-dimethoxyphenyl)-1,3-thiazole-2-yl]guanidine] and `COc1cccc(OC)c1CNC(=N)Nc1nc(-c2ncccn2)cs1` [Example 122, N-(2,6-dimethoxybenzyl)-N′-(4-pyrimidine-2-yl-1,3-thiazole-2-yl)guanidine hydrobromide] cannot be ordered by Ki: < 50 nM for the first, < 50 nM for the second.

First: COc1cccc(OC)c1CNC(=N)Nc1nc(-c2cccc(C(F)(F)F)c2)cs1 [Example 108, N-(2,6-dimethoxybenzyl)-N′-{4-[3-(trifluoromethyl)phenyl]-1,3-thiazole-2-yl}guanidine]
Second: COc1cccc(F)c1CNC(=N)Nc1nc(-c2ccc(F)cc2)cs1 [Example 141, N-(2-fluoro-6-methoxybenzyl)-N′-[4-(4-fluorophenyl)-1,3-thiazole-2-yl]guanidine]
The Ki of the first is higher: > 500 nM for the first, 50 to 500 nM for the second. The second binds more tightly here.

First: COc1cccc(OC)c1CNC(=N)Nc1nc(-c2cccs2)cs1 [Example 90, N-(2,6-dimethoxybenzyl)-N′-[4-(2-thienyl)-1,3-thiazole-2-yl]guanidine hydrobromide]
Second: CC(=O)c1cccc(OCCCNC(=N)Nc2nccs2)c1 [Example 23, N-[3-(3-acetylphenoxy)propyl]-N′-1,3-thiazole-2-ylguanidine (2E)-But-2-endioate]
The Ki of the first is lower: < 50 nM for the first, > 500 nM for the second. The first binds more tightly here.

First: CCN(CC)c1ccc(-c2csc(NC(=N)NCc3c(OC)cccc3OC)n2)cc1 [Example 62, N-{4-[4-(diethylamino)phenyl]-1,3-thiazole-2-yl}-N′-(2,6-dimethoxybenzyl)guanidine]
Second: COc1cccc(OC)c1CNC(=N)Nc1nc(-c2ccc(Cl)cn2)cs1 [Example 123, N-[4-(5-chloropyridine-2-yl)-1,3-thiazole-2-yl]-N′-(2,6-dimethoxybenzyl)guanidine acetate]
The Ki of the first is higher: 50 to 500 nM for the first, < 50 nM for the second.

`COc1ccccc1CNC(=N)Nc1nc(C)c(C)s1` [Example 40] and `CCOC(=O)c1csc(NC(=N)NCc2c(OC)cccc2OC)n1` [Example 192, Ethyl 2-{[[(2,6-dimethoxybenzyl)amino](imino)methyl]amino}-1,3-thiazole-4-carboxylate acetate] cannot be ordered by Ki: < 50 nM for the first, < 50 nM for the second.

`COc1ccccc1CNC(=N)Nc1nc(-c2ccc(F)cc2)co1` [Example 198, N-[4-(4-fluorophenyl)-1,3-oxazole-2-yl]-N′-(2-methoxybenzyl)guanidine] and `COc1cccc(OC)c1CNC(=N)Nc1nc(-c2ccc3c(c2)OCO3)cs1` [Example 69, N-[4-(1,3-benzodioxol-5-yl)-1,3-thiazole-2-yl]-N′-(2,6-dimethoxybenzyl)guanidine hydrobromide] cannot be ordered by Ki: < 50 nM for the first, < 50 nM for the second.
